{"source": "PubChem BioAssay (NCI)", "assay_in_all_cases": "DTP human tumour cell line panel, 48 h", "key": {"[1]": {"tested_on": "M19-MEL melanoma"}, "[2]": {"tested_on": "XF 498 CNS"}, "[3]": {"tested_on": "HOP-18 NSCLC"}, "[4]": {"tested_on": "DMS 273 small cell lung"}, "[5]": {"tested_on": "SNB-19 CNS"}, "[6]": {"tested_on": "SNB-78 CNS"}, "[7]": {"tested_on": "DLD-1 colon"}, "[8]": {"tested_on": "KM20L2 colon"}, "[9]": {"tested_on": "LXFL 529 NSCLC"}, "[10]": {"tested_on": "DMS 114 small cell lung"}, "[11]": {"tested_on": "RXF-631 renal"}}, "note": "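Assay format: 96-well plates, 48-hour exposure. TGI: total growth inhibition.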", "data": [{"smiles": "CCCCCCCCC(O)c1ccc(/C=C\\C(O)CCCC(=O)O)s1", "note": "(configuration not stated)", "values": [{"measurement": "TGI", "setting": "[1]", "result": "> 100", "unit": "µM"}, {"measurement": "TGI", "setting": "[2]", "result": "> 100", "unit": "µM"}, {"measurement": "TGI", "setting": "[3]", "result": "> 100", "unit": "µM"}, {"measurement": "TGI", "setting": "[4]", "result": "> 100", "unit": "µM"}, {"measurement": "TGI", "setting": "[5]", "result": "> 100", "unit": "µM"}, {"measurement": "TGI", "setting": "[6]", "result": "> 100", "unit": "µM"}, {"measurement": "TGI", "setting": "[7]", "result": "> 100", "unit": "µM"}, {"measurement": "TGI", "setting": "[8]", "result": "> 100", "unit": "µM"}, {"measurement": "TGI", "setting": "[9]", "result": "> 100", "unit": "µM"}, {"measurement": "TGI", "setting": "[10]", "result": "> 100", "unit": "µM"}]}, {"smiles": "CCSC1=N/C(=C\\c2ccco2)C(=O)N1", "values": [{"measurement": "TGI", "setting": "[5]", "result": "> 100", "unit": "µM"}]}, {"smiles": "O=[N+]([O-])c1ccc(-c2nn3c(C45CC6CC(CC(C6)C4)C5)nnc3s2)c(Cl)c1", "values": [{"measurement": "TGI", "setting": "[5]", "result": "> 100", "unit": "µM"}]}, {"smiles": "O=c1c(Sc2c(SCSc3cnc4ccccc4c3Sc3c[nH]c4ccccc4c3=O)cnc3ccccc23)c[nH]c2ccccc12", "values": [{"measurement": "TGI", "setting": "[5]", "result": "> 100", "unit": "µM"}]}, {"smiles": "COc1ccccc1N/C(SCc1ccccc1)=C(/C(Cl)=C(Cl)Cl)[N+](=O)[O-]", "values": [{"measurement": "TGI", "setting": "[5]", "result": "> 100", "unit": "µM"}]}, {"smiles": "NC(=O)[N+](=CC(=S)Nc1ccccc1Cl)C(N)=O", "values": [{"measurement": "TGI", "setting": "[5]", "result": "> 100", "unit": "µM"}]}, {"smiles": "COC(=O)C(=O)C(C(=O)C(=O)Nc1ccc(C)cc1C)c1nc2ccc(Cl)cc2[nH]c1=O", "note": "(configuration not stated)", "values": [{"measurement": "TGI", "setting": "[5]", "result": "> 100", "unit": "µM"}]}, {"smiles": "Cc1ccc(-c2cc(-c3ccccc3)c(C#N)c(=O)[nH]2)cc1", "values": [{"measurement": "TGI", "setting": "[11]", "result": "> 100", "unit": "µM"}, {"measurement": "TGI", "setting": "[1]", "result": "> 100", "unit": "µM"}, {"measurement": "TGI", "setting": "[3]", "result": "> 100", "unit": "µM"}, {"measurement": "TGI", "setting": "[4]", "result": "> 100", "unit": "µM"}, {"measurement": "TGI", "setting": "[5]", "result": "> 100", "unit": "µM"}, {"measurement": "TGI", "setting": "[6]", "result": "> 100", "unit": "µM"}, {"measurement": "TGI", "setting": "[7]", "result": "> 100", "unit": "µM"}, {"measurement": "TGI", "setting": "[8]", "result": "> 100", "unit": "µM"}, {"measurement": "TGI", "setting": "[9]", "result": "> 100", "unit": "µM"}, {"measurement": "TGI", "setting": "[10]", "result": "> 100", "unit": "µM"}]}, {"smiles": "COc1ccc(/C=C\\c2cc(OC)c(OC)c(OC)c2)cc1", "values": [{"measurement": "TGI", "setting": "[11]", "result": "> 100", "unit": "µM"}, {"measurement": "TGI", "setting": "[1]", "result": "> 100", "unit": "µM"}, {"measurement": "TGI", "setting": "[4]", "result": "> 100", "unit": "µM"}, {"measurement": "TGI", "setting": "[7]", "result": "> 100", "unit": "µM"}, {"measurement": "TGI", "setting": "[9]", "result": "> 100", "unit": "µM"}, {"measurement": "TGI", "setting": "[10]", "result": "> 100", "unit": "µM"}]}, {"smiles": "O=C1Oc2ccccc2C(=O)/C1=C/N1C(=O)CNC1=S", "values": [{"measurement": "TGI", "setting": "[5]", "result": "> 100", "unit": "µM"}]}, {"smiles": "Cc1ccc(-c2cn3c(nc4ccccc43)c(/C=C/c3ccco3)n2)cc1", "values": [{"measurement": "TGI", "setting": "[5]", "result": "> 100", "unit": "µM"}]}, {"smiles": "Cc1ccc2nc(NS(=O)(=O)c3cc(C)c(Cl)cc3S)[nH]c2c1", "values": [{"measurement": "TGI", "setting": "[5]", "result": "> 100", "unit": "µM"}]}, {"smiles": "CC1=CCC(C(C)(C)NC(=O)c2ccccc2)C/C1=N/O", "note": "(configuration not stated)", "values": [{"measurement": "TGI", "setting": "[5]", "result": "> 100", "unit": "µM"}]}, {"smiles": "O=[N+]([O-])c1cccc2nccc(NCCN3CCOCC3)c12", "values": [{"measurement": "TGI", "setting": "[5]", "result": "> 100", "unit": "µM"}]}, {"smiles": "COc1ccc(-c2nc(-c3cnccn3)n(C3OC(CO)C(O)C3O)n2)cc1", "note": "(configuration not stated)", "values": [{"measurement": "TGI", "setting": "[5]", "result": "> 10", "unit": "µM"}]}, {"smiles": "O=C1CSC(c2ccccc2O)N1c1ccc(-n2c(-c3ccccc3)nc3ccccc3c2=O)cc1", "note": "(configuration not stated)", "values": [{"measurement": "TGI", "setting": "[5]", "result": "> 100", "unit": "µM"}]}, {"smiles": "Cc1c(-c2ccccc2)[nH]c2cn[nH]c(=O)c12", "values": [{"measurement": "TGI", "setting": "[5]", "result": "> 100", "unit": "µM"}]}, {"smiles": "CN=c1sc2nc(C#N)c(C#N)nc2n1C", "values": [{"measurement": "TGI", "setting": "[5]", "result": "> 62.6", "unit": "µM"}]}, {"smiles": "O=C1OC([C@H](O)c2cccnc2)c2ccccc21", "note": "(some centres not stated)", "values": [{"measurement": "TGI", "setting": "[5]", "result": "> 10", "unit": "µM"}]}, {"smiles": "CCOC(=O)c1nc2ccc(C(F)(F)F)cc2nc1Nc1ccc(OC)cc1", "values": [{"measurement": "TGI", "setting": "[5]", "result": "> 100", "unit": "µM"}]}, {"smiles": "C1CSCC2(COC2)CSCCSCC2(COC2)CS1", "values": [{"measurement": "TGI", "setting": "[5]", "result": "> 100", "unit": "µM"}]}, {"smiles": "C1CCCN(NC2=NCCO2)CC1", "values": [{"measurement": "TGI", "setting": "[5]", "result": "> 100", "unit": "µM"}]}, {"smiles": "O=C(Cc1nc2ccccc2[nH]c1=O)c1c[nH]c2ccccc12", "values": [{"measurement": "TGI", "setting": "[5]", "result": "> 100", "unit": "µM"}]}, {"smiles": "COC(=O)[C@@](NC(=O)OCc1ccccc1)([C@H](C)O)C(F)(F)F", "values": [{"measurement": "TGI", "setting": "[5]", "result": "> 100", "unit": "µM"}]}]}
